The values below come from patent publication US7470543B2, “Methods for identifying ligands using competitive binding 1H NMR experiments” (Nerviano Medical Sciences S.r.l., priority 2002, dated 2008).

For assay [1], the target named is T1, HSA (Homo sapiens, UniProt P02768). The assay can be described thus: previous NMR measurement of the low affinity second binding site for Trp. The following applies: 20° C., measured previously by NMR. The source says:
[…]. J., 273, 641-644 (1991)) is somewhat larger. This small difference can probably be ascribed to the presence of a low affinity second binding site for Trp. […] Despite this complication, the values that are rapidly derived from the NMR screening experiments serve for most of the purposes in the early stages of drug discovery.

In assay [2] the target is T1, HSA. The following applies: 20° C.; read-out: KD^(a) binding constant of L-Trp measured with equilibrium dialysis; cited from earlier work. (In general: In equilibrium dialysis free small molecules cross a membrane that holds back macromolecules.)
The target of a further assay is T2, HSA (Sudlow site I) (Homo sapiens, UniProt P02768).
T2 construct: Fatty acid free human serum albumin (A-3782) was purchased from Sigma and used without further purification; purchased Sigma A-3782
T2 sequence (P02768 25-609): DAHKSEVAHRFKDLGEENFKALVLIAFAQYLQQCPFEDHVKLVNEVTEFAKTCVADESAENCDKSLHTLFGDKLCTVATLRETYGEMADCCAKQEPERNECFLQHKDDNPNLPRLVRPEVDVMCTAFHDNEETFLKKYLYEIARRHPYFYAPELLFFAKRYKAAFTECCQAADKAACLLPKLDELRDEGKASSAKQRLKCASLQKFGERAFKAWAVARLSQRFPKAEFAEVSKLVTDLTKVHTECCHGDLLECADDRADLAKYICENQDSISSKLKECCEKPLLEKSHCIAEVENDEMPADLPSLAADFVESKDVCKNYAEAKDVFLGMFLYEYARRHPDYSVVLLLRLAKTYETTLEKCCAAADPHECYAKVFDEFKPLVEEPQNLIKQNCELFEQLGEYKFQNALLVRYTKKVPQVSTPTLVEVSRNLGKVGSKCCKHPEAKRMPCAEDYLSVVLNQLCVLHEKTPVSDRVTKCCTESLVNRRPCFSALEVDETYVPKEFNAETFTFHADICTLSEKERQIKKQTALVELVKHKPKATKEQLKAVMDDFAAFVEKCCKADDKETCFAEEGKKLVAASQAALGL
In words: doubly-selective R1-filtered and spin-echo 1H NMR competition binding, spy molecule warfarin. The following applies: 25 μM, HSA 0 to 2.5 μM.

For assay [3], the target named is T1, HSA. The following applies: up to concentration of several hundred μM; cited from earlier work.

T1 sequence (P02768 25-609): as above

Turning to `N[C@@H](Cc1c[nH]c2ccccc12)C(=O)O` [Trp, tryptophan], the “affinity for the low affinity second binding site” value on HSA [1] was “several hundreds”. For the same compound, the Kd (in general, the constant that tells how readily two partners part at equilibrium) at HSA [2] is 23 µM.

Regarding `Cc1ccc2[nH]cc(CC(N)C(=O)O)c2c1` (stereo not shown) [5-CH3 D,L Trp (2), 5-CH3 D,L Trp], the “binding of the control molecule to HSA (signal intensity as a function of protein concentration)” value at HSA (Sudlow site I) is recorded as “does not bind”. In addition, the “interaction with HSA” value on HSA [3] is on record as “does not interact with HSA”.
